From ChEMBL document CHEMBL1697731, “Cheminformatics analysis of assertions mined from literature that describe drug-induced liver injury in different species” (Chem Res Toxicol, 2010)

What was measured:
Hepatotoxicity [1] = experiment: Literature-mined compound from Fourches et al multi-species drug-induced liver injury (DILI) dataset, effect in non-rodents
Hepatotoxicity [2] = experiment: Literature-mined compound from Fourches et al multi-species drug-induced liver injury (DILI) dataset, effect in humans; conditions: human
Hepatotoxicity [3] = experiment: Literature-mined compound from Fourches et al multi-species drug-induced liver injury (DILI) dataset, effect in rodents; conditions: rodentia

| Structure (SMILES) | Hepatotoxicity (Hepatotoxicity [1]; Liver) | Hepatotoxicity (Hepatotoxicity [2]; Liver) | Hepatotoxicity (Hepatotoxicity [3]; Liver) | Hepatotoxicity (Hepatotoxicity [1]) | Hepatotoxicity (Hepatotoxicity [2]) | Hepatotoxicity (Hepatotoxicity [3]) |
| --- | --- | --- | --- | --- | --- | --- |
| CC1(C)NC(=O)N(c2ccc([N+](=O)[O-])c(C(F)(F)F)c2)C1=O [NILUTAMIDE] | no drug-induced liver injury reported | drug-induced liver injury reported | drug-induced liver injury reported |  |  |  |
| COCCOC(=O)C1=C(C)NC(C)=C(C(=O)OC(C)C)C1c1cccc([N+](=O)[O-])c1 (stereo unspecified) [NIMODIPINE] |  |  |  | no drug-induced liver injury reported | drug-induced liver injury reported | drug-induced liver injury reported |
| O=C1NCCN1c1ncc([N+](=O)[O-])s1 [NIRIDAZOLE] |  |  |  | no drug-induced liver injury reported | no drug-induced liver injury reported | drug-induced liver injury reported |
| COC(=O)C1=C(C)NC(C)=C(C(=O)OCC(C)C)C1c1ccccc1[N+](=O)[O-] (stereo unspecified) [NISOLDIPINE] |  |  |  | drug-induced liver injury reported | drug-induced liver injury reported | drug-induced liver injury reported |
| O=C1CCCC(=O)C1C(=O)c1ccc(C(F)(F)F)cc1[N+](=O)[O-] [NITISINONE] |  |  |  | drug-induced liver injury reported | no drug-induced liver injury reported | drug-induced liver injury reported |
| O=C1CN=C(c2ccccc2)c2cc([N+](=O)[O-])ccc2N1 [NITRAZEPAM] |  |  |  | no drug-induced liver injury reported | no drug-induced liver injury reported | drug-induced liver injury reported |
| CCOC(=O)C1=C(C)NC(C)=C(C(=O)OC)C1c1cccc([N+](=O)[O-])c1 (stereo unspecified) [NITRENDIPINE] |  |  |  | no drug-induced liver injury reported | drug-induced liver injury reported | drug-induced liver injury reported |
| O=C1CN(/N=C/c2ccc([N+](=O)[O-])o2)C(=O)N1 [NITROFURANTOIN] | drug-induced liver injury reported | drug-induced liver injury reported | drug-induced liver injury reported |  |  |  |
| NC(=O)N/N=C/c1ccc([N+](=O)[O-])o1 [NITROFURAZONE] |  |  |  | no drug-induced liver injury reported | no drug-induced liver injury reported | drug-induced liver injury reported |
| O=[N+]([O-])OCC(CO[N+](=O)[O-])O[N+](=O)[O-] [NITROGLYCERIN] |  |  |  | no drug-induced liver injury reported | drug-induced liver injury reported | drug-induced liver injury reported |
| CNC(=C[N+](=O)[O-])NCCSCc1csc(CN(C)C)n1 [NIZATIDINE] |  |  |  | no drug-induced liver injury reported | drug-induced liver injury reported | drug-induced liver injury reported |
| CC(Cc1ccc(O)c(O)c1)C(C)Cc1ccc(O)c(O)c1 (stereo unspecified) [NORDIHYDROGUAIARETIC ACID] |  |  |  | no drug-induced liver injury reported | drug-induced liver injury reported | drug-induced liver injury reported |
| NC[C@H](O)c1ccc(O)c(O)c1 [NOREPINEPHRINE] |  |  |  | drug-induced liver injury reported | drug-induced liver injury reported | drug-induced liver injury reported |
| C#C[C@]1(OC(C)=O)CC[C@H]2[C@@H]3CCC4=CC(=O)CC[C@@H]4[C@H]3CC[C@@]21C [NORETHINDRONE ACETATE] |  |  |  | drug-induced liver injury reported | no drug-induced liver injury reported | drug-induced liver injury reported |
| CCn1cc(C(=O)O)c(=O)c2cc(F)c(N3CCNCC3)cc21 [NORFLOXACIN] | no drug-induced liver injury reported | drug-induced liver injury reported | drug-induced liver injury reported |  |  |  |
| C#CC1(O)CC[C@H]2[C@@H]3CCC4=CC(=O)CC[C@@H]4[C@H]3CC[C@@]21CC (stereo partly specified) [NORGESTREL] | no drug-induced liver injury reported | drug-induced liver injury reported | drug-induced liver injury reported |  |  |  |
| CNCCC=C1c2ccccc2CCc2ccccc21 [NORTRIPTYLINE] | no drug-induced liver injury reported | drug-induced liver injury reported | no drug-induced liver injury reported |  |  |  |
| COc1ccc2c(c1OC)C(=O)O[C@@H]2[C@H]1c2c(cc3c(c2OC)OCO3)CCN1C [NOSCAPINE] |  |  |  | no drug-induced liver injury reported | no drug-induced liver injury reported | drug-induced liver injury reported |
| CO[C@@H]1[C@@H](OC(N)=O)[C@@H](O)[C@H](Oc2ccc3c(O)c(NC(=O)c4ccc(O)c(CC=C(C)C)c4)c(=O)oc3c2C)OC1(C)C [NOVOBIOCIN] |  |  |  | no drug-induced liver injury reported | drug-induced liver injury reported | drug-induced liver injury reported |

| Structure (SMILES) | Hepatotoxicity (Hepatotoxicity [1]; Liver) | Hepatotoxicity (Hepatotoxicity [2]; Liver) | Hepatotoxicity (Hepatotoxicity [3]; Liver) | Hepatotoxicity (Hepatotoxicity [1]) | Hepatotoxicity (Hepatotoxicity [2]) | Hepatotoxicity (Hepatotoxicity [3]) |
| --- | --- | --- | --- | --- | --- | --- |
| CO[C@@H]1[C@H](OC(=O)NC(=O)CCl)CC[C@]2(CO2)[C@H]1[C@@]1(C)O[C@@H]1CC=C(C)C [O-CHLOROACETYLCARBAMOYLFUMAGILLOL] |  |  |  | drug-induced liver injury reported | no drug-induced liver injury reported | drug-induced liver injury reported |
| Cc1cc2c(s1)Nc1ccccc1N=C2N1CCN(C)CC1 [OLANZAPINE] |  |  |  | no drug-induced liver injury reported | drug-induced liver injury reported | no drug-induced liver injury reported |
| CCCCCCCC/C=C\CCCCCCCC(=O)O [OLEIC ACID] |  |  |  | no drug-induced liver injury reported | no drug-induced liver injury reported | drug-induced liver injury reported |
| CCCc1nc(C(C)(C)O)c(C(=O)OCc2oc(=O)oc2C)n1Cc1ccc(-c2ccccc2-c2nnn[nH]2)cc1 [OLMESARTAN MEDOXOMIL] |  |  |  | no drug-induced liver injury reported | no drug-induced liver injury reported | drug-induced liver injury reported |
| COC(=O)C[C@](O)(CCCC(C)(C)O)C(=O)O[C@@H]1C(OC)=C[C@]23CCCN2CCc2cc4c(cc2[C@H]13)OCO4 [OMACETAXINE MEPESUCCINATE] |  |  |  | no drug-induced liver injury reported | drug-induced liver injury reported | no drug-induced liver injury reported |
| COc1ccc2[nH]c([S+]([O-])Cc3ncc(C)c(OC)c3C)nc2c1 (stereo unspecified) [OMEPRAZOLE] |  |  |  | no drug-induced liver injury reported | drug-induced liver injury reported | drug-induced liver injury reported |
| Cc1nccn1CC1CCc2c(c3ccccc3n2C)C1=O (stereo unspecified) [ONDANSETRON] |  |  |  | no drug-induced liver injury reported | drug-induced liver injury reported | no drug-induced liver injury reported |
| Cc1[nH]c(/C=C2\C(=O)Nc3ccccc32)c(C)c1CCC(=O)O [ORANTINIB] |  |  |  | no drug-induced liver injury reported | drug-induced liver injury reported | no drug-induced liver injury reported |
| CCCCCCCCCCC[C@@H](C[C@@H]1OC(=O)[C@H]1CCCCCC)OC(=O)[C@H](CC(C)C)NC=O [ORLISTAT] |  |  |  | no drug-induced liver injury reported | drug-induced liver injury reported | no drug-induced liver injury reported |
| O=C(O)c1cc(=O)[nH]c(=O)[nH]1 [OROTIC ACID] |  |  |  | no drug-induced liver injury reported | no drug-induced liver injury reported | drug-induced liver injury reported |
| Cc1ccccc1C(OCCN(C)C)c1ccccc1 (stereo unspecified) [ORPHENADRINE] |  |  |  | no drug-induced liver injury reported | no drug-induced liver injury reported | drug-induced liver injury reported |
| CC(C)NCC1CCc2cc(CO)c([N+](=O)[O-])cc2N1 (stereo unspecified) [OXAMNIQUINE] |  |  |  | no drug-induced liver injury reported | no drug-induced liver injury reported | drug-induced liver injury reported |
| C[C@]12COC(=O)C[C@@H]1CC[C@@H]1[C@@H]2CC[C@@]2(C)[C@H]1CC[C@]2(C)O [OXANDROLONE] |  |  |  | no drug-induced liver injury reported | no drug-induced liver injury reported | drug-induced liver injury reported |
| O=C(O)CCc1nc(-c2ccccc2)c(-c2ccccc2)o1 [OXAPROZIN] |  |  |  | no drug-induced liver injury reported | drug-induced liver injury reported | no drug-induced liver injury reported |
| NC(=O)N1c2ccccc2CC(=O)c2ccccc21 [OXCARBAZEPINE] |  |  |  | no drug-induced liver injury reported | drug-induced liver injury reported | no drug-induced liver injury reported |
| CNCC(O)c1ccc(O)cc1 (stereo unspecified) [OXEDRINE] |  |  |  | no drug-induced liver injury reported | no drug-induced liver injury reported | drug-induced liver injury reported |
| CN(C(=O)CN(CCO)CC(=O)N(C)C(C)(C)Cc1ccccc1)C(C)(C)Cc1ccccc1 [OXETHAZAINE] |  |  |  | no drug-induced liver injury reported | no drug-induced liver injury reported | drug-induced liver injury reported |
| C=CCOc1ccccc1OCC(O)CNC(C)C (stereo unspecified) [OXPRENOLOL] | drug-induced liver injury reported | no drug-induced liver injury reported | no drug-induced liver injury reported |  |  |  |
